According to BindingDB's records for doi:10.1016/s0960-894x(01)00378-x (The R. W. Johnson Pharmaceutical Research Institute, 2001):

Test: In vitro inhibition of human platelet aggregation induced by SFLLRN-NH2 (at a concentration of 2 uM)
`NC(=O)NCCCC(NC(=O)[C@H](Cc1ccc(F)c(F)c1)NC(=O)Nc1ccc2c(CN3CCCC3)cn(Cc3c(Cl)cccc3Cl)c2c1)C(=O)NCc1ccccc1` (stereo partly drawn) [2-[(S)-2-{3-[1-(2,6-Dichloro-benzyl)-3-pyrrolidin-1-ylmethyl-1H-indol-6-yl]-ureido}-3-(3,4-difluoro-phenyl)-propionylamino]-5-ureido-pentanoic acid benzylamide] gave an IC50 of 300 nM. `NC(=O)CCC(NC(=O)[C@H](Cc1ccc(F)c(F)c1)NC(=O)Nc1ccc2c(CN3CCCC3)cn(Cc3c(Cl)cccc3Cl)c2c1)C(=O)NCc1ccccc1` (stereo partly drawn) [2-[(S)-2-{3-[1-(2,6-Dichloro-benzyl)-3-pyrrolidin-1-ylmethyl-1H-indol-6-yl]-ureido}-3-(3,4-difluoro-phenyl)-propionylamino]-pentanedioic acid 5-amide 1-benzylamide] gave an IC50 of 2000 nM. `N#Cc1ccc(C[C@H](NC(=O)Nc2ccc3c(CN4CCCC4)cn(Cc4c(Cl)cccc4Cl)c3c2)C(=O)N[C@@H](CCCNC(=N)N)C(=O)NCc2ccccc2)cc1` [(S)-2-((S)-3-(4-Cyano-phenyl)-2-{3-[1-(2,6-dichloro-benzyl)-3-pyrrolidin-1-ylmethyl-1H-indol-6-yl]-ureido}-propionylamino)-5-guanidino-pentanoic acid benzylamide] gave an IC50 of 70 nM. For `COc1ccc(C[C@H](NC(=O)Nc2ccc3c(CN4CCCCC4)cn(Cc4ccc(F)cc4)c3c2)C(=O)N[C@@H](CCCNC(=N)N)C(=O)NCC2CCCCC2)cc1` [(S)-2-[(S)-2-{3-[1-(4-Fluoro-benzyl)-3-piperidin-1-ylmethyl-1H-indol-6-yl]-ureido}-3-(4-methoxy-phenyl)-propionylamino]-5-guanidino-pentanoic acid cyclohexylmethyl-amide], the IC50 was 1000 nM. With `COc1ccc(C[C@H](NC(=O)Nc2ccc3c(CN4CCC4)cn(Cc4ccc(F)cc4)c3c2)C(=O)N[C@@H](CCCNC(=N)N)C(=O)NCc2ccccc2)cc1` [(S)-2-[(S)-2-{3-[3-Azetidin-1-ylmethyl-1-(4-fluoro-benzyl)-1H-indol-6-yl]-ureido}-3-(4-methoxy-phenyl)-propionylamino]-5-guanidino-pentanoic acid benzylamide] the IC50 was 400 nM. `NCCC[C@H](NC(=O)[C@H](Cc1ccc(F)c(F)c1)NC(=O)Nc1ccc2c(CN3CCCC3)cn(Cc3c(Cl)cccc3Cl)c2c1)C(=O)NCc1ccccc1` [(S)-5-Amino-2-[(S)-2-{3-[1-(2,6-dichloro-benzyl)-3-pyrrolidin-1-ylmethyl-1H-indol-6-yl]-ureido}-3-(3,4-difluoro-phenyl)-propionylamino]-pentanoic acid benzylamide] gave an IC50 of 100 nM. Compound `COc1ccc(C[C@H](NC(=O)Nc2ccc3c(CN4CCCC4)cn(Cc4ccccc4C)c3c2)C(=O)N[C@@H](CCCNC(=N)N)C(=O)NCCCc2ccccc2)cc1` [(S)-5-Guanidino-2-((S)-3-(4-methoxy-phenyl)-2-{3-[1-(2-methyl-benzyl)-3-pyrrolidin-1-ylmethyl-1H-indol-6-yl]-ureido}-propionylamino)-pentanoic acid (3-phenyl-propyl)-amide] has an IC50 of 200 nM. In the case of `COc1ccc(C[C@H](NC(=O)Nc2ccc3c(CN4CCCC4)cn(Cc4ccc(OC(F)(F)F)cc4)c3c2)C(=O)N[C@@H](CCCNC(=N)N)C(=O)NCC2CCCCC2)cc1` [(S)-5-Guanidino-2-((S)-3-(4-methoxy-phenyl)-2-{3-[3-pyrrolidin-1-ylmethyl-1-(4-trifluoromethoxy-benzyl)-1H-indol-6-yl]-ureido}-propionylamino)-pentanoic acid cyclohexylmethyl-amide], the IC50 is reported as 4800 nM. With `NCC(NC(=O)[C@H](Cc1ccc(F)c(F)c1)NC(=O)Nc1ccc2c(CN3CCCC3)cn(Cc3c(Cl)cccc3Cl)c2c1)C(=O)NCc1ccccc1` (stereo partly drawn) [(S)-N-(2-Amino-1-benzylcarbamoyl-ethyl)-2-{3-[1-(2,6-dichloro-benzyl)-3-pyrrolidin-1-ylmethyl-1H-indol-6-yl]-ureido}-3-(3,4-difluoro-phenyl)-propionamide] the IC50 was 500 nM.
